# Source: patent publication US6221866A, “Indanyl-substituted benzenecarboxamides, processes for their preparation, their use as a medicament, and pharmaceutical formulations containing them” (priority 1999, dated 2001)
# Target: T1, Human Kv1.5 channels (Homo sapiens, UniProt P22460)
# T1 construct: expressed in transfected cells; host or cells: Xenopus laevis oocytes injected with Kv1.5-coding RNA synthesized in vitro
# Assay: Inhibition of human Kv1.5 current expressed in Xenopus oocytes (two microelectrode voltage clamp)
# Format: cell-based
# Settings: human Kv1.5 expressed in Xenopus oocytes; voltage jumps to 0 mV and 40 mV, 500 ms; RT; pH 7.4; Hill equation
# Description: Human Kv1.5 channels were expressed in Xenopus oocytes. For this purpose, oocytes were first isolated from Xenopus laevis and were defolliculated. Kv1.5-coding RNA synthesized in vitro was then injected into these oocytes. After Kv1.5 protein expression for 1-7 days, Kv1.5 currents were measured on the oocytes by the two microelectrode voltage clamp technique. Here, the Kv1.5 channels were activated as a rule with voltage jumps to 0 mV and 40 mV, lasting for 500 ms. The bath was flushed with a solution of the following composition: 96 mM NACl, 2 mM KCl, 1.8 mM CaCl2, 1 mM MgCl2, and 5 mM HEPES (tritrated with NaOH to pH 7.4). These experiments were carried out at RT. The following were used for data acquisition and analysis: Geneclamp amplifier (Axon Instruments, Foster City, USA) and MacLab D/A converter and software (ADinstruments, Castle Hill, Australia). The substances according to the invention were tested by adding them in different concentrations to the bath solution. The effects of the substances were calculated as percentage inhibition of the Kv1.5 control current obtained when no substance was added to the solution. The data were then extrapolated using the Hill equation, in order to determine the inhibitory concentration (IC50) for the respective substances.
# T1 sequence (P22460 whole entry): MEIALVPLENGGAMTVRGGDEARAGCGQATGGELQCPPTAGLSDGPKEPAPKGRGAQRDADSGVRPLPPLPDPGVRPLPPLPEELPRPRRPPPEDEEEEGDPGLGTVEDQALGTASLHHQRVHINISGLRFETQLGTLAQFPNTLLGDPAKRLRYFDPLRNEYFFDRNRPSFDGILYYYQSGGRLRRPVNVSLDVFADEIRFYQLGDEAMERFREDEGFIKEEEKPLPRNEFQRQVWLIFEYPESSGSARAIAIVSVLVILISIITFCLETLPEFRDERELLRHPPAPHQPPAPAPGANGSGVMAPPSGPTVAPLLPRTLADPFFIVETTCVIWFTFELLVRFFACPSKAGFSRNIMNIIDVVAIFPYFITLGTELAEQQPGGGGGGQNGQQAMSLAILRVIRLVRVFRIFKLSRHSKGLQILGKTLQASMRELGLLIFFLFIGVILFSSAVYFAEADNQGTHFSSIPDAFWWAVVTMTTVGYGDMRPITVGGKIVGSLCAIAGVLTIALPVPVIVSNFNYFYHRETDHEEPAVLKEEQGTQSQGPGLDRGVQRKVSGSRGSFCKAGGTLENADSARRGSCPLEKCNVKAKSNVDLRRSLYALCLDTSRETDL
row,Structure (SMILES),IC50
1,NS(=O)(=O)c1cc(C(=O)NC2CCc3ccccc32)ccc1Cl (centres unmarked) [Example 1],> 10 µM
2,O=C(NC1CCc2ccccc21)c1cc(S(=O)(=O)NC2CCCCC2)c(Cl)cc1Cl (centres unmarked) [Example 13],3.9 µM
3,COc1ccc(NS(=O)(=O)c2cc(C(=O)NC3CCc4ccccc43)c(Cl)cc2F)cc1 (centres unmarked) [Example 90],2.8 µM
4,O=C(NC1CCc2ccccc21)c1cc(S(=O)(=O)NC2CCCCC2)c(F)cc1Cl (centres unmarked) [Example 73],6.2 µM
5,CN(C(=O)c1cc(S(=O)(=O)NC2CCCCC2)ccc1Cl)C1CCc2ccccc21 (centres unmarked) [Example 94],2.2 µM

# More lines, now with the values ahead:
row,IC50,Structure (SMILES)
1,7.7 µM,CCCCNS(=O)(=O)c1cc(C(=O)NC2CCc3ccccc32)ccc1Cl (centres unmarked) [Example 3]
2,5.3 µM,Cc1ccc(S(=O)(=O)NCCC(C)C)cc1C(=O)NC1CCc2ccccc21 (centres unmarked) [Example 43]
3,8.8 µM,Cc1cc(C)c(S(=O)(=O)NCCC(C)C)cc1C(=O)NC1CCc2ccccc21 (centres unmarked) [Example 57]
4,4.8 µM,CC(C)CNS(=O)(=O)c1cc(C(=O)NC2CCc3ccccc32)c(Cl)cc1Cl (centres unmarked) [Example 10]
5,7.1 µM,Cc1ccc(S(=O)(=O)NC2CCCCC2)cc1C(=O)NC1CCc2ccccc21 (centres unmarked) [Example 51]
6,4.2 µM,O=C(NC1CCc2ccccc21)c1cc(S(=O)(=O)NC2CCC2)c(Cl)cc1Cl (centres unmarked) [Example 14]
7,6.9 µM,Cc1cc(S(=O)(=O)NCCC(C)C)cc(C(=O)NC2CCc3ccccc32)c1C (centres unmarked) [Example 60]
8,6.3 µM,O=C(NC1CCc2ccccc21)c1cc(S(=O)(=O)Nc2ccccc2)ccc1Cl (centres unmarked) [Example 62]
9,8.7 µM,COc1ccc2c(c1)C(NC(=O)c1ccc(Cl)c(S(=O)(=O)NCCC(C)C)c1)CC2 (centres unmarked) [Example 88]
10,2.8 µM,CC(C)CCNS(=O)(=O)c1cc(C(=O)NC2CCc3ccccc32)c(Cl)cc1Cl (centres unmarked) [Example 11]
11,5.6 µM,COc1cc2c(cc1OC)C(NC(=O)c1ccc(Cl)c(S(=O)(=O)NCCC(C)C)c1)CC2 (centres unmarked) [Example 89]
12,~3 µM,CC(C)CCNS(=O)(=O)c1cc(C(=O)N[C@H]2CCc3ccccc32)c(Cl)cc1Cl [Example 20]
13,~3 µM,CC(C)CCNS(=O)(=O)c1cc(C(=O)N[C@@H]2CCc3ccccc32)c(Cl)cc1Cl [Example 19]

# Tested on: Kv1.5 channel
# Assay: not given
# Settings: described in the literature, side effect alongside other principal effects; cited from earlier work
row,Structure (SMILES),blocking effect on the Kv1.5 channel (in words)
1,C1CCC2(C1)C1CN(CC3CC3)CC2CN(CC2CC2)C1 [Tedisamil],blocking effect on the Kv1.5 channel
2,CCCCN1CCCCC1C(=O)Nc1c(C)cccc1C (centres unmarked) [Bupivacaine],blocking effect on the Kv1.5 channel
3,O=C1NCCN1CCN1CCC(c2cn(-c3ccc(F)cc3)c3ccc(Cl)cc23)CC1 [Sertindole],blocking effect on the Kv1.5 channel

# Tested on: fast-activating potassium channel IKr
# Assay: not given
# Settings: human ventricle and atrium cells; cited from earlier work
row,Structure (SMILES),block of IKr (in words)
1,CN(CCOc1ccc(NS(C)(=O)=O)cc1)CCc1ccc(NS(C)(=O)=O)cc1 [Dofetilide],predominantly or exclusively block the fast-activating potassium channel IKr
2,CC(C)NC[C@@H](O)c1ccc(NS(C)(=O)=O)cc1 [d-Sotalol],predominantly or exclusively block the fast-activating potassium channel IKr
